Experimental findings from publication PMC11830721 (Frontiers in Pharmacology, 2025) are described below.

The test system of one experiment is NB4 cells. Description: MTT assay, NB4 (FLT3 wild-type). The class given is cell-based. Conditions: 2–64 μM. An excerpt: The human AML cell line MV4-11, which bears exclusive FLT3-ITD mutation genes, was purchased from the American Type Culture Collection (ATCC, Manassas, VA, United States), and the AML cell line NB4, a FLT3-wildtype cell line, was obtained from the China Center for Type Culture Collection (CCTCC, Wuhan, China). In addition, the normal hematopoietic cell line was COLO 829BL from ATCC. The cells were maintained in RPMI-1640 medium supplemented with 10% FBS, and 1% penicillin and streptomycin. The cells were cultured in an incubator at 37°C with 5% CO2. […] The high-performance liquid chromatography (HPLC) spectra data for each compound are provided in the (Supplementary Figures S1–S6). The FLT3-ITD mutant protein was purchased from Abcam (Cambridge, United Kingdom).
The effects of the test compounds on MV4-11, NB4, and COLO 829BL cell lines were quantitatively evaluated according to the methods previously reported ([Zhou et al., 2022]).
Subsequently, to further validate the specificity of FLIN-4 for cells expressing FLT3-ITD, we conducted MTT assays to assess the specificity and cytotoxicity of FLIN-4 within the concentration range of 2–64 μM on NB4 cells (harboring FLT3 wild-type) and COLO 829BL cells (representing normal hematopoietic cells). […]
In general terms: Tetrazolium dyes change colour on reduction, which living cells bring about.

The target in another experiment is ALK (Homo sapiens, UniProt Q9UM73). As to the kind of experiment: SelectScreen kinase selectivity assay. The experiment is classed as biochemical. Conditions: ten-dose 0.25–128 μM. The protocol: (§1) Following the standardized kinase activity assay protocol as previously reported, we utilized the SelectScreen Kinase Profiling Service (Thermo Fisher Scientific) to determine the kinase selectivity profile of FLIN-4 ([van der Wel et al., 2020]). Through a ten-dose dilution series ranging from 0.25 μM to 128 μM in dose-response experiments, we precisely measured the inhibitory effect of FLIN-4 on the substrate phosphorylation reactions catalyzed by a panel of kinases, and thus ascertained the half-maximal inhibitory concentrations (IC50) for each kinase.
Chain of ALK (Q9UM73 19-1620): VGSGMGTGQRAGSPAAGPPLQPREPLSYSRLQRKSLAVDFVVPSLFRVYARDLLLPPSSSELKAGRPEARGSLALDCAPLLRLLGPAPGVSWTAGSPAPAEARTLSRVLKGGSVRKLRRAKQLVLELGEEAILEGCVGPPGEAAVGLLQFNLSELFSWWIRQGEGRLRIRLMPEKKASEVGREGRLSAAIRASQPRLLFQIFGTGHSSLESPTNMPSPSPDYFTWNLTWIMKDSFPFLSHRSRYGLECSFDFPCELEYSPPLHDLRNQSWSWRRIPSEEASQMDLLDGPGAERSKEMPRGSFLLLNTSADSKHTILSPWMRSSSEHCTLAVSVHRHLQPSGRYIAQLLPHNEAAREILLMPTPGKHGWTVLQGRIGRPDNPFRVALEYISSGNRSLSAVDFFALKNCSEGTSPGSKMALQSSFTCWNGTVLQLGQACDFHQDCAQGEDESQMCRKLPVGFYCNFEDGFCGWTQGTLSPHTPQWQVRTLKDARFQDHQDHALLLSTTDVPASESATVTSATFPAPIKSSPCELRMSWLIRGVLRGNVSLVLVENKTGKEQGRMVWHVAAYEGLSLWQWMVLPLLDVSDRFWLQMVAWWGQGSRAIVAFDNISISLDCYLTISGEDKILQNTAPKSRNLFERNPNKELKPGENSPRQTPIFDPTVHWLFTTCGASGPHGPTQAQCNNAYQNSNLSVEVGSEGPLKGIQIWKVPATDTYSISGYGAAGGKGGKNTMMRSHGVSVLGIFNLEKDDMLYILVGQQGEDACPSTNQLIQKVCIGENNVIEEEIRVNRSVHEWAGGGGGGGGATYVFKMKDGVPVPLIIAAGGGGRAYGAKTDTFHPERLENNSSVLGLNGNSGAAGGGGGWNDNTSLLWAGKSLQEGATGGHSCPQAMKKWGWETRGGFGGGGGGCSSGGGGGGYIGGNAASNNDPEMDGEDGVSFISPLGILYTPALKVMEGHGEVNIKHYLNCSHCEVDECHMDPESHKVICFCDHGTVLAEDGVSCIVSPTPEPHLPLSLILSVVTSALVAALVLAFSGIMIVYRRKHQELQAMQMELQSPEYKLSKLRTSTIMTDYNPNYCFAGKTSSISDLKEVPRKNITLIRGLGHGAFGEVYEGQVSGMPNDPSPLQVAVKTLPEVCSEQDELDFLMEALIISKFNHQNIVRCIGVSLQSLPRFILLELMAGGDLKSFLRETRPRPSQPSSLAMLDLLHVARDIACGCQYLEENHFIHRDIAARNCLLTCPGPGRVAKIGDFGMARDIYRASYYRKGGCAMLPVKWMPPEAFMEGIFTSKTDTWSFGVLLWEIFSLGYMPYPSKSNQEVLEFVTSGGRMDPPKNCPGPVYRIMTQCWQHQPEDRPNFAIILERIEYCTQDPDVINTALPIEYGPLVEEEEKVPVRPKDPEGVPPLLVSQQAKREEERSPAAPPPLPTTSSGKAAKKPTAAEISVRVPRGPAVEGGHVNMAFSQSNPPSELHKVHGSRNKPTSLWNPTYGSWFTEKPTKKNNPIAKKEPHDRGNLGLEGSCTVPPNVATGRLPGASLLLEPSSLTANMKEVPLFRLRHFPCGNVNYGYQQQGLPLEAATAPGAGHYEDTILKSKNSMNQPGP

Another experiment has as its target HCK (Homo sapiens, UniProt P08631). As to the kind of experiment: SelectScreen kinase selectivity assay. The experiment is classed as biochemical. Conditions: ten-dose 0.25–128 μM. As to the method:
as §1

Experiment [1] deals with T1, FLT3-ITD (Homo sapiens, UniProt P36888, ITD).
T1 sequence (P36888 27-993): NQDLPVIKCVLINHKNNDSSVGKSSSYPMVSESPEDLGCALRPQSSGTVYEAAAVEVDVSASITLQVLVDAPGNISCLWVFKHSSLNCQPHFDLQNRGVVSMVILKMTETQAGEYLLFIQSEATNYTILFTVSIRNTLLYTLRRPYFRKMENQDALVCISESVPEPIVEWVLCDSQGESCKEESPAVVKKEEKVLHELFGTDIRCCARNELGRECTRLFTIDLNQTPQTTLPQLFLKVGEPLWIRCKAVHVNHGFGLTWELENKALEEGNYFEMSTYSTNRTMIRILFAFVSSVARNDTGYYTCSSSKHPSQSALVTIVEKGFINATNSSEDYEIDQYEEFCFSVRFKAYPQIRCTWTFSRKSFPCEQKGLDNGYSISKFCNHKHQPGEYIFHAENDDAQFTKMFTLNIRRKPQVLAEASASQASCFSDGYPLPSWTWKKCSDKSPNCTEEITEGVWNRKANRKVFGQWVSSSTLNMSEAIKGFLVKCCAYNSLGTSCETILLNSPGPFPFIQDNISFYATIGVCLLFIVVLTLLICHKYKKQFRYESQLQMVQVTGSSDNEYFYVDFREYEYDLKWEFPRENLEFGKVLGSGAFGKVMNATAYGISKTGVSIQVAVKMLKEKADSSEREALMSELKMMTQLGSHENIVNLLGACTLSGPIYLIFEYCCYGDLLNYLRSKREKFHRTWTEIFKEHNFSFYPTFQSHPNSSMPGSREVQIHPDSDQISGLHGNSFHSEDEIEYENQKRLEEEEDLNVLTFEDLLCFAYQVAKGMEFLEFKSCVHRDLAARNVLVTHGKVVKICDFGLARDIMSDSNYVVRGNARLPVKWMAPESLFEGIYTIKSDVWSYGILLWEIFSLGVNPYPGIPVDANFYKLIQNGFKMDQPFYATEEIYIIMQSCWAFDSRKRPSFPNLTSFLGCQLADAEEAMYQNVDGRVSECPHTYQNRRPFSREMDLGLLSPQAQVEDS
As to the kind of experiment: Microscale thermophoresis (MST) binding affinity. Conditions: 50 mM Tris, 230 mM NaCl, pH 7.0, labeled protein 50 nM. The protocol:
The protein was labeled with a fluorescence tag utilizing a Lys Labeling Kit (NanoTemper), with a final concentration of 50 nM being achieved. Adhering to the manufacturer’s guidelines, the compounds were titrated from an initial concentration of 12.5 μM with a 1:1 dilution ratio. Next, each sample was centrifuged at 15,000 rpm for 5 min, followed by loading into standard glass capillaries for MST analysis.
In general terms: Microscale thermophoresis detects binding through changes in fluorescence in a small temperature gradient.

Experiment [2] deals with FLT3 signaling pathway (p-FLT3, p-STAT5, p-ERK) in MV4-11 cells. As to the kind of experiment: Western blot of FLT3 signaling pathway in MV4-11 cells. Conditions: 4 h, MV4-11, Western blot quantification. The class given is cell-based, human. The protocol: The MV4-11 cell line was subjected to a 4 h exposure to varying concentrations of the FLIN-4 compound. Subsequent to this treatment, cellular lysis was conducted using RIPA lysis buffer (Sigma-Aldrich, United States) to isolate total cellular proteins. Subsequently, protein concentrations were precisely quantified using the BCA protein assay kit (Beyotime, Nantong, China). Western blot analysis was carried out in accordance with established methodologies ([Zhou et al., 2022]). The primary antibodies utilized in this study included: rabbit anti-FLT3 (21049−1-AP, Proteintech Group), rabbit anti-phospho-FLT3 (ab171975, Abcam), rabbit anti-Stat5 (#94205, CST), rabbit anti-Phospho-Stat5 (#4322, CST), rabbit anti-ERK (16443−1-AP, Proteintech Group), rabbit anti-phospho-ERK (28733−1-AP, Proteintech Group), and a rabbit anti-GAPDH antibody (10494−1-AP, Proteintech Group) served as an endogenous loading control.
To elucidate the impact of FLIN-4 on the FLT3 signaling cascade, we conducted a Western blot analysis in MV4-11 cells to evaluate the relative expression levels of pivotal phosphorylated proteins.
(In western blotting, separated proteins are transferred to a membrane and probed.)

The subject of experiment [3] is FLT3-ITD. Description: ADP-Glo kinase-inhibition assay. The experiment is classed as biochemical. Conditions: ratio of IC50 values vs Midostaurin. The protocol:
(§2) Subsequently, the kinase detection reagent was added and incubated for an additional 15 min. Finally, the mixture was incubated for 1 h, and relative luminescence units (RLU) were measured.
(§3) Moreover, we extended the kinase selectivity profiling of FLIN-4 to evaluate its inhibitory activity against 60 non-target kinases.

Experiment [4] addresses T1, FLT3-ITD. Description: ADP-Glo kinase-inhibition assay. The experiment is classed as biochemical. Conditions: ADP-Glo; ATP 100 μM; FLT3-ITD 10 ng/μL. The protocol: as §2, §3

Chain of HCK (P08631 whole entry): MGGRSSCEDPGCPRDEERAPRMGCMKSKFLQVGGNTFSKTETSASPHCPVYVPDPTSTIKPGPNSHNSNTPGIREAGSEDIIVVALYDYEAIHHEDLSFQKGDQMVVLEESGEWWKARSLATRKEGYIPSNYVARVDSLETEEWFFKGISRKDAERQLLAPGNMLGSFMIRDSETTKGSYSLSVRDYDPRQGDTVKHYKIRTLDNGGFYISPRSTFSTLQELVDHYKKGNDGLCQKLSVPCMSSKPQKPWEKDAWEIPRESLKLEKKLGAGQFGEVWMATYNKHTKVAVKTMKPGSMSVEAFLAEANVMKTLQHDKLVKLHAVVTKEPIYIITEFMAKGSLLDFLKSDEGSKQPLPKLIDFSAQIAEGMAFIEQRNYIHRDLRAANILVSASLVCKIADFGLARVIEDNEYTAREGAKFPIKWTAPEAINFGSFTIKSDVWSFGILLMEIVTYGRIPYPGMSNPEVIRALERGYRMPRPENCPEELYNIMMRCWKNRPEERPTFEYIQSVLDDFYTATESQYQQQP

For `CCc1nc(C(N)=O)c(Nc2ccc(N3CCC(Nc4ccccc4)CC3)c(OC)c2)nc1NC1CCOC(C(O)CO)C1` (stereo not drawn) [FLIN-4], in the experiment on NB4 cells, the “Survival rate of NB4 cells” value is reported as “did not induce any significant changes in the survival rates”. For the same compound, the IC50 – broadly, the concentration at which inhibition is half-maximal – against ALK was over 10000 nM; at HCK, over 10000 nM; against FLT3-ITD [4], 1.07 ± 0.04 nM. Further, on FLT3-ITD [1], the dissociation constant Kd (usually the free concentration of one partner at which half of the binding sites on the other are occupied at equilibrium, for simple one-to-one binding) stood at 0.95 ± 0.06 nM. The values for the p-ERK/ERK expression level result in experiment [2] (3 nM) and in experiment [2] (30 nM) were “significant diminution” and “exacerbated decrease”, respectively. Moreover, the p-FLT3/FLT3 expression level entry is “significant diminution” in experiment [2] (3 nM) and “exacerbated decrease” in experiment [2] (30 nM). In addition, the p-STAT5/STAT5 expression level result in experiment [2] (3 nM) is listed as “significant diminution”; in experiment [2] (30 nM), “exacerbated decrease”. In addition, the “FLT3-ITD inhibitory potency relative to Midostaurin” value in the experiment with FLT3-ITD [3] is on record as “approximately 27 times”.
